In experiment [1] the test system is MDA-MB-231 breast cancer cells. Briefly: Cell growth inhibition, Sulforhodamine B assay, MDA-MB-231. It is filed as cell-based. The note with it: Homo sapiens, 120 h, 5 days culture, SRB assay, read-out: Cell Line GI50 Range MDA-MB-231. In general terms: In SRB staining, fixed cells bind dye roughly in proportion to their protein.
Experiment [2] deals with HCT116 colon cancer cells. Put plainly: Cell growth inhibition, Sulforhodamine B assay, HCT116. It is filed as cell-based. The note with it: Homo sapiens, HCT-116, 120 h, 5 days culture, SRB assay, read-out: Cell Line GI50 Range HCT116.
Experiment [3] deals with PA-1 ovarian cancer cells. Briefly: Cell growth inhibition, Sulforhodamine B assay, PA-1. The class given is cell-based. As to conditions: 120 h, 5 days culture, SRB assay, read-out: Cell Line GI50 Range PA-1.
Experiment [4] has as its system MDA-MB-468 breast cancer cells. Put plainly: Cell growth inhibition, Sulforhodamine B assay, MDA-MB-468. The class given is cell-based. As to conditions: Homo sapiens, 120 h, 5 days culture, SRB assay, read-out: Cell Line GI50 Range MDA-MB-468.
In the next experiment the target is T1, human PLK4 (Homo sapiens, UniProt O00444).
T1 construct: amino terminal GST fusion of residues 1-391 of human PLK4; made in house; host or cells: E. coli
T1 sequence (O00444 1-391): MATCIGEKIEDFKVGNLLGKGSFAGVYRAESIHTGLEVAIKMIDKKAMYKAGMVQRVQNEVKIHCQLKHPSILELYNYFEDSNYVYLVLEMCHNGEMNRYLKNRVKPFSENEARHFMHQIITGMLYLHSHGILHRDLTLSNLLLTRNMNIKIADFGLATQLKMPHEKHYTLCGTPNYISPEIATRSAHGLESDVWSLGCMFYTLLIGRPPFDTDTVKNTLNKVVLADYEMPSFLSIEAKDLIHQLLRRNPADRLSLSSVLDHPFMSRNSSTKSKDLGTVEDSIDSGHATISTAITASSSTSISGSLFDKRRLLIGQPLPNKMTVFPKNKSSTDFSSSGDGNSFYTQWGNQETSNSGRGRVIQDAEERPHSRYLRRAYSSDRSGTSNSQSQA
Put plainly: PLK4 inhibition assay (indirect ELISA). The class given is biochemical. The note with it: GST-PLK4 4 nM, 15 μM ATP; read-out: IC50 Ranges PLK4. The essentials:
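Dephosphorylated GST-tagged human PLK4 (residues 1-391, E. coli), 4 nM, preincubated 15 min with compound, then reacted 30 min with 15 μM ATP on MBP-coated plates (50 mM HEPES pH 7.5, 10 mM MgCl2, 0.01% Brij 35). Phospho-MBP detected by antibody ELISA at 450 nm. Tested at 10 μM or 10-point titrations; IC50 from 4-parameter logistic fit.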
(ELISA stands for enzyme-linked immunosorbent assay.)

For experiment [5], the system named is OVCAR-3 ovarian cancer cells. Put plainly: Cell growth inhibition, Sulforhodamine B assay, OVCAR-3. It is filed as cell-based. As to conditions: Homo sapiens, 120 h, 5 days culture, SRB assay, read-out: Cell Line GI50 Range OVCAR-3.
A further experiment has as its target T2, Aurora B (Homo sapiens, UniProt Q96GD4).
T2 construct: purchased Invitrogen PV3970
Put plainly: Aurora B inhibition assay (Z-Lyte). As to conditions: 28 nM Aurora B, 128 μM ATP; read-out: IC50 Ranges Aurora B. It is filed as biochemical. How it is done: Aurora B inhibition was determined using the Z-Lyte assay kit from Invitrogen. The assay was performed using the recommended manufacturer's instructions with 128 μM ATP and 28 nM Aurora B (Invitrogen cat #PV3970). The % inhibition values were determined according to the manufacturer's directions and IC50 values were obtained using a non-linear 4 point logistic curve fit (XLfit4, IDBS)

The test system of the next experiment is HT29 colon cancer cells. Put plainly: Cell growth inhibition, Sulforhodamine B assay, HT29. It is filed as cell-based. The note with it: Homo sapiens, HT-29, 120 h, 5 days culture, SRB assay, read-out: Cell Line GI50 Range HT29.
A further experiment addresses T3, human TTK (Homo sapiens, UniProt P33981).
T3 construct: amino terminal GST fusion of full length human TTK; purchased Invitrogen
T3 sequence (P33981 1-857): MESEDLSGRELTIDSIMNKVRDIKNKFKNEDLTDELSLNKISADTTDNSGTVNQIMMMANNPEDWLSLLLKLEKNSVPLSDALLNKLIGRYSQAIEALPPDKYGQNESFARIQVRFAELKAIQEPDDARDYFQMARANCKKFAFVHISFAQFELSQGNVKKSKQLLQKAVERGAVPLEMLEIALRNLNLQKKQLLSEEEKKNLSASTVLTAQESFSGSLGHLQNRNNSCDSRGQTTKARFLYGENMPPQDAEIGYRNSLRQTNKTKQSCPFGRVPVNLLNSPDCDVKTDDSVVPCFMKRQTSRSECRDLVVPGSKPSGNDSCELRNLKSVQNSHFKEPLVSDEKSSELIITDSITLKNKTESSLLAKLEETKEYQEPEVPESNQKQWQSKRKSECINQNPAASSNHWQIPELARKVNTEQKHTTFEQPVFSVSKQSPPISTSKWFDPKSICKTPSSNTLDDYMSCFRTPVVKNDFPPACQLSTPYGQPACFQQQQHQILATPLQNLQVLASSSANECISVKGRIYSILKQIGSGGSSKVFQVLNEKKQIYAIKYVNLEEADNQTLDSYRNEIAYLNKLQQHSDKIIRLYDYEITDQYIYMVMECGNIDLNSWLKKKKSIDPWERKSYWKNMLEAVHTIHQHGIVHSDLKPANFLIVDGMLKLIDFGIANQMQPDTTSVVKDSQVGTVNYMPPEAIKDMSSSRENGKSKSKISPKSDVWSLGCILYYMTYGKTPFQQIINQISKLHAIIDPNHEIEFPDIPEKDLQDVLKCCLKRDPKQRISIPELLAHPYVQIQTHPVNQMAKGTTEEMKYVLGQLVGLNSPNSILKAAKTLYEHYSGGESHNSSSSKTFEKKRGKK
Briefly: TTK inhibition assay (indirect ELISA). The note with it: GST-TTK 0.68 nM, 16 μM ATP; read-out: IC50 Ranges TTK. It is filed as biochemical.

T2 sequence (Q96GD4 whole entry): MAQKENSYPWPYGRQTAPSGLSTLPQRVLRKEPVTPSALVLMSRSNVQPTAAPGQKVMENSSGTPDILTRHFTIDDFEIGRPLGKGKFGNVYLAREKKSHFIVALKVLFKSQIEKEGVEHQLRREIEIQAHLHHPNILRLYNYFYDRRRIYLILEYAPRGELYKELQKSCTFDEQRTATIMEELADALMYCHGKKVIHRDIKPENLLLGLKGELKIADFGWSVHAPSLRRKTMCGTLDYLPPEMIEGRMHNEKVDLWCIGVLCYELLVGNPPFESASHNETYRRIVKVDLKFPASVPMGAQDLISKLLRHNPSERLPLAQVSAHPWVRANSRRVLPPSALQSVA

As a reminder, the GI50 is the concentration at which growth is held to half of that of the control. One may read the IC50 as the concentration that inhibits the measured activity by half. In the case of `CN1CCC(Oc2ccc(-c3n[nH]c4ccc(NC(=O)C5CCCc6ccccc65)cc34)cc2)CC1` (centres unmarked) [Example A18, N-(3-(4-((1-methylpiperidin-4-yl)oxy)phenyl)-1H-indazol-5-yl)-1,2,3,4-tetrahydronaphthalene-1-carboxamide], the GI50 (in experiment [1]; in experiment [2]; in experiment [3]; in experiment [4]; in experiment [5]; in the experiment on HT29 colon cancer cells) was no more than 5 µM in each case. In addition, the IC50 at human PLK4, at Aurora B and at human TTK was no more than 5 µM in each case.
As to `Cc1ccccc1CC(=O)Nc1ccc2[nH]nc(-c3ccc(OC4CCN(C)CC4)cc3)c2c1` [Example A92, N-(3-(4-(1-Methylpiperidin-4-yloxy)phenyl)-1H-indazol-5-yl)-2-o-tolylacetamide], the 50% growth inhibitory concentration (GI50) (in experiment [1]; in experiment [2]; in experiment [3]; in [4]; in [5]; with HT29 colon cancer cells) was no more than 5 µM throughout. In addition, the IC50 on human PLK4, at Aurora B and at human TTK was no more than 5 µM each time.
In the case of `CN1CCN(C)c2ccc(-c3n[nH]c4ccc(NC(=O)C(c5ccsc5)N5CCCC5)cc34)cc2C1` (centres unmarked) [Example A93, N-(3-(1,4-dimethyl-2,3,4,5-tetrahydro-1H-benzo[e][1,4]diazepin-7-yl)-1H-indazol-5-yl)-2-(pyrrolidin-1-yl)-2-(thiophen-3-yl)acetamide], the concentration for 50% growth inhibition (GI50) in experiment [1] was no more than 5 µM; in [2], no more than 5 µM; in [3] it was no more than 5 µM; in experiment [4], no more than 5 µM; in [5], 5 to 20 µM; with HT29 colon cancer cells, no more than 5 µM. The IC50 at human PLK4, at Aurora B and at human TTK was no more than 5 µM in each case.
With `CN1CCN(C(=O)c2cccc(-c3n[nH]c4ccc(NC(=O)C(c5ccsc5)N5CCCC5)cc34)c2)CC1` (centres unmarked) [Example A96, N-(3-(3-(4-Methylpiperazine-1-carbonyl)phenyl)-1H-indazol-5-yl)-2-(pyrrolidin-1-yl)-2-(thiophen-3-yl)acetamide], the GI50 (in experiment [1]; in [2]; in experiment [3]; in experiment [4]; in experiment [5]; in the experiment on HT29 colon cancer cells) was 5 to 20 µM in each case. Besides, the 50% inhibitory concentration (IC50) at human PLK4 is no more than 5 µM; at Aurora B, 5 to 50 µM; on human TTK it was no more than 5 µM.
`CN1CCC(Oc2cccc(-c3n[nH]c4ccc(NC(=O)C(c5ccsc5)N5CCCC5)cc34)c2)CC1` (centres unmarked) [Example A99, N-(3-(3-((1-methylpiperidin-4-yl)oxy)phenyl)-1H-indazol-5-yl)-2-(pyrrolidin-1-yl)-2-(thiophen-3-yl)acetamide]: the GI50 (in experiment [1]; in experiment [2]; in experiment [3]; in experiment [4]; in experiment [5]; with HT29 colon cancer cells) was no more than 5 µM in each case. Further, the 50% inhibitory concentration (IC50) on human PLK4, at Aurora B and on human TTK was no more than 5 µM in each case.
Turning to `O=C(NC(c1ccccc1)C1CC1)c1ccc2[nH]nc(-c3ccc(OC4CCN(CCO)CC4)cc3)c2c1` (centres unmarked) [Example A104, N-(cyclopropyl(phenyl)methyl)-3-(4-((1-(2-hydroxyethyl)piperidin-4-yl)oxy)phenyl)-1H-indazole-5-carboxamide], the GI50 (in [1]; in experiment [2]; in [3]; in [4]; in experiment [5]; in the experiment with HT29 colon cancer cells) was no more than 5 µM throughout. The concentration for half-maximal inhibition (IC50) on human PLK4, on Aurora B and at human TTK was no more than 5 µM each time.
For `CN1CCC(Oc2ccc(-c3n[nH]c4ccc(C(=O)NCc5ccccc5N5CCOCC5)cc34)cc2)CC1` [Example A108, 3-(4-(1-Methylpiperidin-4-yloxy)phenyl)-N-(2-morpholinobenzyl)-1H-indazole-5-carboxamide], the 50% growth inhibitory concentration (GI50) (in experiment [1]; in experiment [2]; in experiment [3]; in experiment [4]; in experiment [5]; in the experiment on HT29 colon cancer cells) was no more than 5 µM each time. Moreover, the IC50 on human PLK4, at Aurora B and at human TTK was no more than 5 µM each time.
As for `CN1CCC(Oc2ccc(-c3n[nH]c4ccc(C(=O)NCc5ccccc5CN5CCOCC5)cc34)cc2)CC1` [Example A109, 3-(4-(1-Methylpiperidin-4-yloxy)phenyl)-N-(2-(morpholinomethyl)benzyl)-1H-indazole-5-carboxamide], the GI50 (in experiment [1]; in [2]; in [3]; in [4]; in [5]; in the experiment on HT29 colon cancer cells) was no more than 5 µM each time. For the same molecule, the 50% inhibitory concentration (IC50) at human PLK4, at Aurora B and on human TTK was no more than 5 µM in each case.
For `CC(C)(O)C1CCN(c2ccc(-c3n[nH]c4ccc(C(=O)NC(c5ccccc5)C5CC5)cc34)cc2)CC1` (centres unmarked) [Example A112, N-(cyclopropyl(phenyl)methyl)-3-(4-(4-(2-hydroxypropan-2-yl)piperidin-1-yl)phenyl)-1H-indazole-5-carboxamide], the concentration for 50% growth inhibition (GI50) (in [1]; in [2]; in experiment [3]; in [4]; in [5]; in the experiment with HT29 colon cancer cells) was no more than 5 µM in each case. For the same molecule, the IC50 at human PLK4, at Aurora B and at human TTK was no more than 5 µM throughout.
Regarding `COCCN1CCC(Oc2ccc(-c3n[nH]c4ccc(C(=O)N[C@H](COC)c5ccccc5)cc34)cc2)CC1` [Example A164, (S)—N-(2-methoxy-1-phenylethyl)-3-(4-((1-(2-methoxyethyl)piperidin-4-yl)oxy)phenyl)-1H-indazole-5-carboxamide], the 50% growth inhibitory concentration (GI50) (in experiment [1]; in experiment [2]; in experiment [3]; in [4]; in [5]; with HT29 colon cancer cells) was no more than 5 µM throughout. The IC50 at human PLK4 and on human TTK was no more than 5 µM each time.

The record behind these values is US20140051679A1, “KINASE INHIBITORS AND METHOD OF TREATING CANCER WITH SAME” (UNIVERISTY HEALTH NETWORKS, priority 2011, published 2014).
